Experimental data as given in paper PMC7822874, “Chemoprotective antimalarials identified through quantitative high-throughput screening of Plasmodium blood and liver stage parasites” (Scientific Reports, 2021).
Where “and” joins values, the source holds several entries; their conditions need not be identical. Identical values can stand only once. Like-named read-outs stand apart in the source and are kept apart here.

Columns and labels:
[1] = system: T1, Plasmodium falciparum Dd2-attB (parental line), asexual blood stages; assay: microbe, parasite or virus in culture; design: replicate k of 3 (each line is one of three independent assays; the three lines of one compound and parasite line follow each other); details: n = 1; for Individual replicates / Log AC50 (M): 72 h; for AC50: Plasmodium falciparum, DD2, 72 h, read-out: Individual replicates / Log AC50 (converted)
T1 construct: Dd2-attB, the isogenic parental line
Method in brief: (§1)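 Three independent runs, compound subset only; parental vs ScDHODH line compared by two-sided Student's t-test.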

[2] = system: T2, Plasmodium falciparum Dd2-attB-ScDHODH (transgenic line expressing yeast DHODH), asexual blood stages; assay: organism not typed; design: replicate k of 3 (each line is one of three independent assays; the three lines of one compound and parasite line follow each other)
T2 construct: Dd2-attB-ScDHODH, the transgenic line that expresses yeast DHODH
Method in brief: as §1

[3] = system: T1, Plasmodium falciparum Dd2-attB (parental line), asexual blood stages; assay: microbe, parasite or virus in culture; design: species or system P. falciparum Dd2-attB in human erythrocytes; SYBR Green-I proliferation assay, Dd2-attB parental line, asexual blood stages; details: Plasmodium falciparum, DD2, Erythrocyte, 72 h
[4] = 72 h; n = 1; read-out: Individual replicates / Log AC50 (converted)
[5] = read-out: Calculated / Average Log AC50 (M), mean of replicates, 72 h (converted)

Row | SMILES | Individual replicates / Log AC50 (M) [1] | AC50 [1] | Individual replicates / Log AC50 (M) ([2]; 72 h, n = 1) | AC50 [2, 4] | AC50 [3, 5] | Individual replicates / Log AC50 (M) ([2]; 72 h; n = 1) | AC50 ([3]; read-out: Calculated / Average Log AC50 (M) (converted))
1 | CCCOC(c1cc2nccc(C(=O)O)c2[nH]1)c1ccccc1Cl (stereo not shown) [NCGC00381656-01] | -5.0486 Log AC50 (M) and -4.7986 Log AC50 (M) | 7.97 µM | -4.9486 Log AC50 (M) | 15.9 µM | 1.04e-05 M |  | 
2 | CCOC(=O)c1ccc(O)c2ncc(N3CCC(C(=N)N)CC3)cc12 [NCGC00241051-01] | -5.1486 Log AC50 (M) | 12.6 µM | -4.7486 Log AC50 (M) and -4.8986 Log AC50 (M) |  | 1.08e-05 M |  | 
3 | CC1CN(Cc2ccccc2)CCN1c1cnc2c(O)ccc(C(=O)O)c2c1 (stereo not shown) [NCGC00249384-01] |  | 14.2 µM |  | 17.8 µM | 1.59e-05 M |  | 
4 | CCOC(=O)c1ccc(O)c2ncc(N3CCNCC3)cc12 [NCGC00241046-01] | -5.2986 Log AC50 (M) and -5.0986 Log AC50 (M) | 5.03 µM | -5.3486 Log AC50 (M) | 5.03 µM | 5.86e-06 M |  | 
5 | O=C1c2ccccc2C(=O)C1c1ccc(C(F)(F)F)cc1 [NCGC00510065-01] | -4.7486 Log AC50 (M) (2×) and -5.0986 Log AC50 (M) |  | -4.6986 Log AC50 (M) and -4.7486 Log AC50 (M) | 17.8 µM | 1.36e-05 M |  | 
6 | O=C(O)c1ccc(O)c2ncc(N3CCCN(CCc4cccc5ccccc45)CC3)cc12 [NCGC00247751-02] | -5.1486 Log AC50 (M) | 6.33 µM | -5.2486 Log AC50 (M) and -4.7486 Log AC50 (M) |  | 9.65e-06 M |  | 
7 | Oc1ncnc2sc(C(OCCN3CCCCC3)c3ccccc3Cl)cc12 (stereo not shown) [NCGC00481361-01] | -5.0986 Log AC50 (M) | 8.94 µM | -5.0486 Log AC50 (M) | 15.9 µM | 1e-05 M |  | 
8 | O=[N+]([O-])c1ccccc1NCc1ccc(O)c2ncccc12 [NCGC00184896-01] | -4.7986 Log AC50 (M) and -5.0986 Log AC50 (M) and -5.1486 Log AC50 (M) |  | -5.0486 Log AC50 (M) | 12.6 µM | 9.65e-06 M |  | 
9 | CCN(CCN(C)C)C(=O)c1cc(OCc2ccc(Cl)cc2C)n(-c2cc(C#N)ccn2)n1 [NCGC00493248-01] | -5.0486 Log AC50 (M) and -5.0986 Log AC50 (M) | 15.9 µM | -4.9486 Log AC50 (M) and -4.8486 Log AC50 (M) | 11.3 µM | 1.04e-05 M |  | 
10 | CCC(C)C1=N[S+](=O)([O-])c2cc(NC(=O)C3CC3)ccc2N1c1ccccc1 (stereo not shown) [NCGC00474156-01] | -5.9486 Log AC50 (M) and -5.5986 Log AC50 (M) (2×) |  | -5.1986 Log AC50 (M) and -5.1486 Log AC50 (M) | 8.94 µM | 1.93e-06 M |  | 
11 | O=C(O)CCNc1cc(N2CCc3ccccc3CC2)nc(-c2cccnc2)n1 [NCGC00351549-01] |  |  |  | 15.9 µM | 2.08e-05 M |  | 
12 | Oc1ccc(CNc2nccc3ccccc23)c2cccnc12 [NCGC00241025-01] | -5.2486 Log AC50 (M) and -4.8986 Log AC50 (M) and -5.1986 Log AC50 (M) |  | -5.2486 Log AC50 (M) and -4.7486 Log AC50 (M) |  | 7.67e-06 M |  | 
13 | COc1cccc(NCc2ccc(O)c3ncccc23)n1 [NCGC00241024-01] | -4.8986 Log AC50 (M) and -5.0486 Log AC50 (M) | 12.6 µM | -4.8486 Log AC50 (M) | 12.6 µM | 1.13e-05 M |  | 
14 | Oc1ccc(CNc2ccccc2F)c2cccnc12 [NCGC00031503-02] | -4.9986 Log AC50 (M) | 17.8 µM | -4.7486 Log AC50 (M) and -4.7986 Log AC50 (M) | 20 µM | 1.22e-05 M |  | 
15 | Cc1cccc(C)c1Nc1c(-c2ccccn2)nc2ccc(Cl)cn12 [NCGC00106608-03] | -4.7986 Log AC50 (M) and -4.9486 Log AC50 (M) | 15.9 µM |  | 15.9 µM | 1.42e-05 M | -4.7986 Log AC50 (M) | 
16 | Cc1ccccc1CN1CCN(c2cnc3c(O)ccc(C(=O)O)c3c2)CC1 [NCGC00249382-01] |  | 14.2 µM |  | 15.9 µM | 1.65e-05 M |  | 
17 | O=C(c1cccc(-c2cc(O)c3ncccc3c2)c1)N1CCN(CCCN2CCOCC2)CC1 [NCGC00247764-01] |  | 17.8 µM |  | 17.8 µM | 2e-05 M |  | 
18 | O=[S+]([O-])(c1nc2ccccc2[nH]1)N(CCc1ccccc1)CCN1CCCCC1 [NCGC00389114-01] | -5.5486 Log AC50 (M) (2×) and -5.0486 Log AC50 (M) |  | -5.6986 Log AC50 (M) and -5.2486 Log AC50 (M) |  | 4.15e-06 M |  | 
19 | Cc1ccc(NC(=O)C(N[S+](=O)([O-])c2ccc3c(c2)CCC(=O)N3)c2ccccc2)cc1C (stereo not shown) [NCGC00110290-01] |  | 17.8 µM |  | 8.94 µM | 1.59e-05 M |  | 
20 | O=C(NCc1cccnc1)c1cccc(-c2cc(O)c3ncccc3c2)c1 [NCGC00244537-01] | -4.7986 Log AC50 (M) | 7.97 µM | -4.8486 Log AC50 (M) | 8.94 µM | 1.31e-05 M |  | 

Row | SMILES | Individual replicates / Log AC50 (M) [1] | AC50 [1] | Individual replicates / Log AC50 (M) ([2]; 72 h, n = 1) | AC50 [2, 4] | AC50 [3, 5] | Individual replicates / Log AC50 (M) ([2]; 72 h; n = 1) | AC50 ([3]; read-out: Calculated / Average Log AC50 (M) (converted))
21 | CN(C)CCNC(=O)c1ccc(-c2cc(O)c3ncccc3c2)cc1 [NCGC00247749-01] | -4.9986 Log AC50 (M) and -5.0486 Log AC50 (M) | 15.9 µM |  | 17.8 µM | 1.13e-05 M |  | 
22 | O=C(O)c1ccc(O)c2ncc(N3CCC(N4CCOCC4)CC3)cc12 [NCGC00249380-01] |  |  |  | 17.8 µM | 1.47e-05 M |  | 
23 | CN(C)CCCN1CCN(C(=O)c2cccc(-c3cc(O)c4ncccc4c3)c2)CC1 [NCGC00247746-01] | -4.7486 Log AC50 (M) | 11.3 µM |  | 15.9 µM | 1.53e-05 M |  | 
24 | C=C[S+](=O)([O-])N1CCCN(c2cc(N(CCC(=O)O)[S+](=O)([O-])C=C)nc(-c3ccccn3)n2)CC1 [NCGC00420875-01] |  | 11.3 µM |  | 15.9 µM | 1.53e-05 M |  | 
25 | CN(C)c1cnc2c(O)ccc([S+](=O)([O-])Nc3ccccc3F)c2c1 [NCGC00189501-01] | -5.0986 Log AC50 (M) | 12.6 µM | -4.9986 Log AC50 (M) and -4.7986 Log AC50 (M) | 14.2 µM | 9.29e-06 M |  | 
26 | CCOC(=O)c1c2ccc(C(=O)N3CCOCC3)cc2n2ccccc12 [NCGC00390098-01] | -5.0486 Log AC50 (M) | 14.2 µM |  | 7.1 µM | 1.26e-05 M |  | 
27 | COc1ccc(NCc2cccn2-c2nnc(N3CCC(C)CC3)s2)c(OC)c1 [NCGC00127038-02] | -4.9986 Log AC50 (M) | 17.8 µM | -4.7486 Log AC50 (M) and -4.7986 Log AC50 (M) | 14.2 µM | 1.26e-05 M |  | 
28 | O=C(NC1CCN(C(=O)c2cc(-c3ccccc3)n[nH]2)C1)c1ccccc1 (stereo not shown) [NCGC00492307-01] |  |  |  | 14.2 µM | 1.59e-05 M |  | 
29 | CCNC(=O)Oc1cc(-c2cccc(C(=O)NCCCc3ccccc3)c2)cc2cccnc12 [NCGC00372508-01] | -5.1986 Log AC50 (M) and -4.7486 Log AC50 (M) and -5.0986 Log AC50 (M) |  | -5.0486 Log AC50 (M) | 6.33 µM |  |  | 9.65e-06 M
30 | NC(=O)c1ccc(O)c2ncccc12 [NCGC00184888-01] |  | 14.2 µM |  | 20 µM | 1.59e-05 M |  | 
31 | CN(C)CCCNC(=O)c1cccc(-c2cc(O)c3ncccc3c2)c1 [NCGC00244527-01] | -5.0486 Log AC50 (M) and -4.8486 Log AC50 (M) | 14.2 µM | -4.7986 Log AC50 (M) | 8.94 µM | 1.22e-05 M |  | 
32 | CCCN1C(CC(C)C)=N[S+](=O)([O-])c2cc(NC(=O)c3ccccc3)ccc21 [NCGC00510420-01] | -6.5486 Log AC50 (M) and -6.1986 Log AC50 (M) and -6.2986 Log AC50 (M) |  | -6.0486 Log AC50 (M) and -5.5486 Log AC50 (M) and -5.8486 Log AC50 (M) |  | 4.48e-07 M |  | 
33 | CC1Cc2cc([S+](=O)([O-])NCc3ccc(N(C)C)cc3)ccc2N1C(=O)C1CCC1 (stereo not shown) [NCGC00124605-03] |  |  |  | 15.9 µM | 1.47e-05 M |  | 
34 | Cc1cccc(CN2CCN(c3cnc4c(O)ccc(C(=O)O)c4c3)CC2)c1 [NCGC00249381-01] |  | 15.9 µM |  |  | 1.78e-05 M |  | 
35 | COC(=O)c1ccnc(-c2cn(C)cn2)c1NC(=O)Cc1ccc(Cl)cc1 [NCGC00420786-01] | -5.0486 Log AC50 (M) and -4.7486 Log AC50 (M) | 17.8 µM |  |  | 1.42e-05 M |  | 
36 | O=C(N[C@H]1CCN(c2cc(-c3ccc(Cl)cc3)[nH]n2)C1)c1ccccc1 [NCGC00489097-01] |  | 6.33 µM |  |  | 1.19e-05 M |  | 
37 | CC(OCCN1CCCCC1)c1cnn(-c2cc(C(=O)O)ccn2)c1-c1cccc(-c2ccccc2)c1 (stereo not shown) [NCGC00481287-01] |  | 15.9 µM |  |  | 1.36e-05 M |  | 
38 | O=C(NC1CCN(c2cc(-c3ccc(Cl)cc3)n[nH]2)C1)c1ccccc1 (stereo not shown) [NCGC00437928-03] |  |  |  | 12.6 µM | 1.85e-05 M |  | 
39 | O=C(O)c1ccc(O)c2ncc(N3CCN(CCc4ccncc4)CC3)cc12 [NCGC00247761-01] |  | 8.94 µM |  |  | 1e-05 M |  | 
